From patent US20190144368A1, “Compounds and compositions for biofilm prevention” (INHIBIO AS, priority 2016, published 2019)
“And” between values parts separate entries of the source, which are not always exact repeats. Identical values can stand only once. “Also recorded” adds a separate entry of the source.

Assays:
[1] = tested on: S. Agona and E. coli (one strain each); experiment: Biofilm formed on stainless steel coupons by Gram negative bacteria (CFU count); format: cell-based, Salmonella ser. Agona, Escherichia coli; settings: 20 °C for 72 hours
Experimental: One strain of S. Agona (FIG. 10) and one strain of E. coli (FIG. 10) was used in this study. The study was performed using 1,3-cyclohexanedione in a concentration of 1 and 10 mg/ml. The strain was stored at −80° C. in BHI (Difco, BD, Franklin Lakes, N.J., USA) supplemented with 15% glycerine (Merck KGaA, Darmstadt, Germany) and was recovered on blood agar at 37.0±1.0° C. The bacterial culture was then transferred into LB broth and was incubated statically overnight at 37.0±1.0° C. to obtain an overnight working culture. The Inhibio compound was dissolved in LB^wo/NaCl to a concentration of 10 mg/ml and then further diluted to a concentration of 1 mg/ml. 10 ml of each solution was added to a 50 ml Falcon tube and, in a third tube, only LB broth^wo/NaCl was added as a control. […]
Following incubation, each coupon was dipped three times in three different tubes containing physiological saline and further transferred to a tube containing 5 ml cold physiological saline as well as 20 sterile silica glass beads. […] After incubation, the bacterial colonies were counted. […]
The Colony forming units (CFU) on the plate was calculated into CFU in biofilm by multiplying with a factor for each dilution. Further, the log value was calculated of the average of each dilution.

[2] = tested on: E. coli 1242 and E. coli 1153; experiment: Biofilm formation in microtiter plates, comparison of 1,3-cyclohexanedione and menthone; format: cell-based, Escherichia coli; settings: two values, one per strain (E. coli 1242, E. coli 1153)
Experimental: All experiments were performed by using sterile 96-wells polystyrene microtiter plates (Nunc, Nuncleon, Roskilde, Denmark) under conditions promoting biofilm formation by the different bacterial genera. The Inhibio compound preparations of the invention; 1,3-cyclohexanedione, 1,4-cyclohexanedione, cyclopentanone, 5-ethylcyclohexane-1,3-dione and 5-methyl-1,3 cyclohexanedione 98% were solved directly in Tryptic Soy Broth (TSB) 1+1 or Liquid Microbiology Broth (LB) broth without NaCl (LB^wo/NaCl) to obtain the test concentrations, i.e. from 1 mg/ml to 10 mg/ml.
One Salmonella ser. Typhimurium (S. Typhimurium), two Salmonella ser. Agona (S. Agona) and two Escherichia coli (E. coli) isolates were used in these studies. The studies performed using 1,3-cyclohexanedione and 1,4-cyclohexanedione were done on Salmonella isolates only. The studies comparing Menthone to 1,3-cyclohexanedione were using two E. coli strains, E. coli 1242 and E. coli 1153, see FIG. 11. The Salmonella isolates were isolated from Norwegian feed factories except one S. Typhimurium strain which was a culture collection strain (ATCC 14028). The E. coli isolates were of animal origin. All strains were stored at −80° C. in BHI supplemented with 15% glycerine and were recovered on blood agar at 37.0±1.0° C. The bacterial cultures were then transferred into LB broth and incubated statically overnight at 37.0±1.0° C. to obtain an overnight working culture. […] After incubation, OD595 was measured before the plates were gently washed one time with 150 μl tap water. […] OD595 was measured in a microplate photometer (Multiscan EX) after the bound dye was dissolved using ethanol:acetone. For each strain, the result was calculated by subtracting the median OD595 of the three parallels of the control (test broth only) from the median OD595 of the three parallels of sample. Further, the averages of the Gram negative strains were calculated. Three independent experiments were performed and the average was evaluated.

[3] = tested on: Listeria monocytogenes (six strains); experiment: Biofilm formation in microtiter plates, Listeria; format: cell-based; settings: 24 hours at 35 °C
Experimental: Six strains of Listeria monocytogenes were used in this study isolated from food research. The strains were recovered in 200 μl TSB broth in a microtiter plate and incubated at 37° C. for 24 hours. A total of 5 μl of the bacterial suspension was transferred to a 96 wells polystyrene microtiter plate (Thermo scientific Nucleon Delta surface) together with 200 μl medium (LB^wo/NaCl) with 1,3-cyclohexanedione (dissolved to 0,625 mg/ml, 2.5 mg/ml, 5 mg/ml and 10 mg/ml) to each well. Each strain was added in duplex and incubated at 35° C. for 24 hours. After incubation, OD595 was measured before the plates were gently washed one time with 200 μl tap water. This was repeated once. The plates were dried in room temperature before addition of 200 μl 0, 1% crystal violet (Sigma-Aldrich). After 30 minutes incubation in room temperature, the plates were washed twice with 200 μl tap water and once with 240 μl. This was followed by the addition of 200 μl ethanol:acetone (70:30 w:w) and incubated for another 10 minutes in room temperature. OD595 was measured in a microplate photometer (Multiscan EX) after the bound dye was dissolved using ethanol:acetone. For each strain, the result was calculated by subtracting the average OD595 of the two parallels of the control (test broth only) from the average OD595 of the two parallels of sample. Three independent experiments were performed. The average of the 6 strains as well as the average between the experiments was calculated.

O=C1CCCC(=O)C1 [1,3-cyclohexanedione]
CFU in biofilm on stainless steel coupon ([1]; 1 mg/ml): decrease in biofilm formation; also recorded: significant decrease
CFU in biofilm on stainless steel coupon ([1]; 10 mg/ml): could not detect any colony forming units; also recorded: no bacteria found in the biofilm
decrease in biofilm formation ([2]; 1 mg/ml): 46% and 70%
decrease in biofilm formation ([2]; 10 mg/ml): 97% and 100%
decrease in biofilm formation in percentage of the control ([3]; 0.625 mg/ml): 27%
decrease in biofilm formation in percentage of the control ([3]; 2.5 mg/ml): 40%
decrease in biofilm formation in percentage of the control ([3]; 5 mg/ml): 53%
decrease in biofilm formation in percentage of the control ([3]; 10 mg/ml): 70%
